Data reported in US20230270804A1, “ANTI-HYPERCHOLESTEROLEMIA COMPOSITION AND A METHOD OF MANUFACTURING THE SAME” (NBI BIOSCIENCES PRIVATE LIMITED, priority 2020, published 2023).
“Also recorded” adds a separate entry of the source.

What was measured:
Format in all cases: in vivo, Wistar strain albino rats
[1] = Prophylactic study: hematological parameters; conditions: HFD+normal diet; for Lymphocyte / Neutrophils: in % (unit assumed)
Procedure: (§1) Wistar strain albino rats of body weight ranging from 190-225 g were selected for the present study. The temperature and humidity were kept at optimum (22+2° C.; 40-70% and animals were exposed to natural chronological day night cycles. The experiments were carried out in conformity with the Institutional Animal Ethics Committee.
(§2) The 6 groups were as follows: • 1. Normal Control • 2.
(§3) 1.5-2 ml blood sample was taken from retino-orbital chamber in vials for biochemical estimations at every 15 days. Investigations performed included detailed Total Cholesterol—TC (mg/dl), Triglyceride—TG (mg/dl), High Density Lipoprotein—HDL-C (mg/dl), Low Density Lipoprotein—LDL-C (mg/dl), Very Low-Density Lipoprotein—VLDL (mg/dl), WBC (10^3/u1), RBC (10^6/u1), Hb (g/dl), PCV (%), Reticulocyte (%), Platelet count 10^5/mm^3, Clotting time (Sec), Neutrophils, Lymphocyte, Monocyte and Eosinophil. The estimations were done with Ecoline kits from Erba Mannheim, ERBA diagnostics Mannheml, Germany using Semi Autoanalyzer RX50 of MicroLabs Instruments and COUNCELL21 of Tulip Diagnostics Pvt. Ltd. Lipid peroxidation (Plasma & Liver), HMG Co-Reductase, Creatine phosphokinase (CPK), Lactate dehydrogenase (LDH), SGOT and SGPT were estimated at the end of both the studies using the kits.

[2] = Prophylactic study: hematological parameters; conditions: HFD+normal diet, day 0
[3] = tested on: hypercholesterolemia induced wistar rat's models; assay: Prophylactic study: lipid profile (TC, TG, HDL-C, LDL-C, VLDL); conditions: for HDL-C / LDL-C / TC / TG / VLDL: HFD+normal diet
Procedure: as §1, §2, §3

[4] = tested on: heart, spleen, lungs, kidney, liver; assay: Prophylactic study: histopathology (heart, spleen, lungs, kidney, liver); conditions: HFD
Excerpt: FIG. 1 depicts the histopathological images of heart.
FIG. 2 depicts the histopathological images of Spleen. […] However, this indicates the safety of the composition of the present invention on spleen.
FIG. 3 depicts the histopathological images of Lungs. […] However, this indicates the safety of the composition of the present invention on lungs.
FIG. 4 depicts the histopathological images of kidney. […] However, this indicates the safety of the composition of the present invention on kidney.
FIG. 5 depicts the histopathological images of liver. […] It also indicates the safety of the composition of the present invention on liver. The composition of the present invention was also found useful to prevent the deposition of the fat bodies.

[5] = Therapeutic study: organ body weight after necropsy
Procedure: (§4) The prophylactic study which lasted 90 days used 6 rats per group. […] The 6 groups were as follows: • 1. Normal Control • 2. High Fat Diet (HFD) 1 ml 1/d+Normal Diet • 3. High Fat Diet (HFD)+Normal Diet+the composition of the present invention (OD) • 4, High Fat Diet (HFD)+Normal Diet+the composition of the present invention (BD) • 5. […] The body weights were recorded to the nearest gram (g) with proper tare to 0.0000 with the subject at steady state on the weighing machine. The same weighing machine was used for all the subjects. The machine was tested with a known set of weights for any error.

[6] = Prophylactic study: organ weights after sacrifice; conditions: HFD+normal diet
Procedure: as §4

## CC(C)c1c(C(=O)Nc2ccccc2)c(-c2ccccc2)c(-c2ccc(F)cc2)n1CC[C@@H](O)C[C@@H](O)CC(=O)O [Statin, Atorvastatin]
[1]; day 0
  Clotting time: 109.0 ± 1.10 s
  Eosinophil: 1.1%
  Hb: 11.95 ± 1.10 g/dL
  Monocyte: 1.4%
  PCV: 42.50 ± 1.80%
  RBC: 7.20 ± 0.20 10^6/μl
  Reticulocyte: 1.15 ± 0.05%
  WBC: 8.90 ± 0.55 10^3/μl
  Lymphocyte: 71.5
  Neutrophils: 26
[1]; day 15
  Clotting time: 107.45 ± 0.77 s
  Eosinophil: 1.3%
  Monocyte: 1.4%
  PCV: 35.85 ± 1.11%
  Platelet count: 905 ± 21.2 10³/µL
  RBC: 7.20 ± 0.81 10^6/μl
  Reticulocyte: 1.10 ± 0.11%
  WBC: 9.79 ± 0.57 10^3/μl
  Lymphocyte: 72.7
  Neutrophils: 24.6
[1]; day 30
  Clotting time: 110.0 ± 1.0 s
  Eosinophil: 1.15%
  Monocyte: 1.6%
  Platelet count: 1060 ± 23.3 10³/µL
  RBC: 7.20 ± 0.20 10^6/μl
  Reticulocyte: 1.08 ± 0.10%
  WBC: 9.03 ± 0.3 10^3/μl
  Lymphocyte: 71.25
  Neutrophils: 26
[1]; day 45
  Clotting time: 114.0 ± 1.00 s
  Eosinophil: 1.15%
  Hb: 12.00 ± 1.20 g/dL
  Monocyte: 1.4%
  PCV: 42.10 ± 1.30%
  RBC: 7.05 ± 0.21 10^6/μl
  Reticulocyte: 1.25 ± 0.06%
  WBC: 9.00 ± 0.50 10^3/μl
  Lymphocyte: 71.45
  Neutrophils: 26
[1]; day 60
  Clotting time: 112.0 ± 1.05 s
  Hb: 12.20 ± 1.12 g/dL
  PCV: 43.10 ± 1.30%
  RBC: 7.06 ± 0.31 10^6/μl
  Reticulocyte: 1.35 ± 0.06%
  WBC: 8.00 ± 0.60 10^3/μl
  Lymphocyte: 71.45
  Neutrophils: 26
[1]; day 75
  Clotting time: 110.81 ± 5.86 s
  Eosinophil: 1.22%
  Hb: 12.82 ± 0.25 g/dL
  Platelet count: 1070 ± 22.9 10³/µL
  RBC: 7.36 ± 0.21 10^6/μl
  Reticulocyte: 1.70 ± 0.05%
  WBC: 8.71 ± 0.23 10^3/μl
  Lymphocyte: 71.12
  Neutrophils: 26.28
[1]; day 90
  Clotting time: 111.00 ± 5.57 s
  Eosinophil: 1.35%
  Hb: 12.78 ± 0.28 g/dL
  Platelet count: 1070 ± 22.9 10³/µL
  RBC: 7.37 ± 0.20 10^6/μl
  Reticulocyte: 1.73 ± 0.02%
  WBC: 8.76 ± 0.19 10^3/μl
  Lymphocyte: 70.82
  Neutrophils: 26.37
[2]
  Platelet count: 1040 ± 15.2 10³/µL
[3]; day 0
  HDL-C: 34.60 ± 1.50 mg/dL
  LDL-C: 47.10 ± 1.25 mg/dL
  TC: 81.95 ± 1.35 mg/dL
  TG: 16.75 ± 1.10 mg/dL
  VLDL: 2.48 ± 0.15 mg/dL
[3]; day 15
  HDL-C: 31.56 ± 1.26 mg/dL
  LDL-C: 48.68 ± 0.29 mg/dL
  TC: 85.24 ± 1.55 mg/dL
  VLDL: 2.86 ± 0.35 mg/dL
[3]; day 30
  HDL-C: 35.66 ± 2.08 mg/dL
  LDL-C: 56.60 ± 4.50 mg/dL
  TC: 85.66 ± 4.04 mg/dL
  TG: 22.66 ± 3.10 mg/dL
  VLDL: 2.96 ± 0.02 mg/dL
[3]; day 45
  HDL-C: 38.33 ± 5.85 mg/dL
  LDL-C: 57 ± 4.0 mg/dL
  TC: 87.5 ± 5.04 mg/dL
  TG: 24.86 ± 4.20 mg/dL
  VLDL: 3.03 ± 0.19 mg/dL
[3]; day 60
  HDL-C: 39.60 ± 5.57 mg/dL
  LDL-C: 57.23 ± 4.43 mg/dL
  TC: 88.5 ± 4.44 mg/dL
  TG: 24.4 ± 4.61 mg/dL
  VLDL: 3.0 ± 0.13 mg/dL
[3]; day 75
  HDL-C: 33.53 ± 1.92 mg/dL
  LDL-C: 55.27 ± 4.39 mg/dL
  TC: 90.95 ± 2.05 mg/dL
  TG: 22.67 ± 4.16 mg/dL
  VLDL: 2.98 ± 0.84 mg/dL
[3]; day 90
  HDL-C: 34.26 ± 1.26 mg/dL
  LDL-C: 52.83 ± 1.76 mg/dL
  TC: 90.22 ± 2.10 mg/dL
  TG: 21.93 ± 3.90 mg/dL
  VLDL: 3.12 ± 0.79 mg/dL
[3]; prophylactic study, after HFD diet treatment
  increase in TC: 10%
[4]
  histopathology of heart: relaxation in the cardiac muscles as the fat content was decreased
[4]; composition at OD and BD dose levels
  histopathology of liver (fatty liver grade): dilation of hepatic portal triad was more evident; also recorded: from grade 2 to grade 1
[5]; HFD Continued
  Intestine (organ body weight after necropsy): 2.00 ± 0.02
  Kidney (organ body weight after necropsy): 2.82 ± 0.06 g/100 g bd. wt
  Liver (organ body weight after necropsy): 4.51 ± 0.12 g/100 g
  Lungs (organ body weight after necropsy): 0.65 ± 0.03 g/100 g bd. wt
  Pancrease (organ body weight after necropsy): 0.89 ± 0.05 g/100 g bd. wt
  Spleen (organ body weight after necropsy): 1.19 ± 0.02
[5]; HFD Discontinued
  Intestine (organ body weight after necropsy): 2.00 ± 0.02
  Kidney (organ body weight after necropsy): 2.84 ± 0.04 g/100 g bd. wt
  Liver (organ body weight after necropsy): 4.37 ± 0.05 g/100 g
  Lungs (organ body weight after necropsy): 0.66 ± 0.03 g/100 g bd. wt
  Pancrease (organ body weight after necropsy): 0.91 ± 0.03 g/100 g bd. wt
  Spleen (organ body weight after necropsy): 1.17 ± 0.03
[6]
  Heart weight: 2.79 ± 0.03 g/100 g bd · wt
  Intestine weight: 3.54 ± 0.03
  Kidney weight: 1.15 ± 0.03 g/100 g bd · wt
  Liver weight: 3.90 ± 0.05 g/100 g bd · wt
  Lungs weight: 1.96 ± 0.02 g/100 g bd · wt
  Spleen weight: 0.65 ± 0.03
  pancreas weight: 0.90 ± 0.05 g/100 g bd · wt
